Laboratory results reported in patent EP0974351A2, “Medicament for preventing and treating gastrointestinal damage” (JOUVEINAL, priority 1998, dated 2000).

What was measured:
[1] = tested on: ethanol-induced gastric lesions; assay: Ethanol-induced gastric lesions in rats; type: in vivo; conditions: ethanol alone 41.9 ± 3.7
Experimental: Male Sprague-Dawley rats weighing 240 to 250 g were fasted for 24 hours and allowed free access to water prior to experiment. All test drugs were given intragastrically. Rats were pretreated with different doses of gabapentin at doses of 40 and 60 mg. Thirty minutes later indomethacin (25 mg/kg) was administered. Another group of rats received 10 mg of gabapentin twice, 3 hours apart, followed by indomethacin administration. Three hours after indomethacin treatment, the rats were killed and gastric lesions were assessed. The severity of the lesions were determined by the measurement of the square area (mm^2) of visible lesions.
To determine the effects of gabapentin on ethanol-induced gastric lesions, rats were pretreated with 1 mL of 70% ethanol, followed by gabapentin at a dose of 40 and 60 mg, respectively. Another group of rats were pretreated by 20 mg of gabapentin given twice, 3 hours apart, followed by ethanol administration. Thirty minutes later, all rats were killed and gastric lesions were assessed.

[2] = tested on: Abdominal Response Induced by Rectal Distension; assay: Abdominal response induced by rectal distension in rats (electromyography); type: in vivo, Male Wistar rats
Description: (§1) The GABA analogs also have been evaluated for their ability to control and treat gastrointestinal disorders characterized as IBD and IBS. The assay utilized to evaluate the GABA analogs measures the effects of compound on lipopolysaccharide-induced delayed rectal allodynia in rats. Intraperitoneal (IP) injections of the endotoxin lipopolysaccharide (LPS) are known to induce long-lasting hyperalgesia in somatic pain models. The following assay was designed to evaluate the effect of IP injections of LPS on pain visceral threshold in an experimental model of rectal distension.
(§2) Male Wistar rats weighing 250 to 350 g were surgically prepared for electromyography, according to a previously described technique. Rats were anesthetized by i.p. injection of acepromazine and ketamine (Imalgene 1000, Rhöne-Mérieux, Lyon, France) at doses of 0.6 and 120 mg/kg, respectively. […] Electrodes were exteriorized on the back of the neck and protected by a glass tube attached to the skin. Animals were individually housed in polypropylene cages and kept in a temperature-controlled room (21°C). They were allowed free access to water and food (UAR pellets, Epinay, France).
(§3) Electromyographic recording began 5 days after surgery. The electrical activity of abdominal striated muscles was recorded with an electroencephalograph machine (Mini VIII, Alvar, Paris, France) using a short-time constant (0.03 sec) to remove low-frequency signals (<3 Hz) and a paper speed of 3.6 cm/minute.
(§4) Rats were placed in plastic tunnels (6 cm diameter; 25 cm length) where they could not move, escape or turn around, in order to prevent damage to the balloon. They are accustomized to this procedure for 3 or 4 days before rectal distension (RD) in order to minimize stress reaction during experiments. […] The balloon used for distension was an arterial embolectomy catheter (Fogarty, Edwards Laboratories, Inc., Santa Ana, USA). RD was performed by insertion of the balloon (2-mm diameter; 2-cm long) in the rectum, at 1 cm of the anus, the catheter being fixed at the tail. It was inflated progressively by step of 0.4 mL, from 0 to 1.6 mL, each step of inflation lasting 5 minutes. To detect possible leakage, the volume of water introduced in the balloon was checked by complete removal with a syringe at the end of the distension period.
In a first series of experiments, a group of 89 rats were submitted to gradual rectal distention. The animals were previously (30 minutes) treated by gabapentin at doses of 30 and 100 mg/kg IP or its vehicle ([…]).
(§5) Statistical analysis of the number of abdominal contractions occurring during each 5-minute period during RD was performed by one-way ANOVA followed by Student's paired t-test. Values were expressed as the mean ± SEM, and differences were considered significant for p <0.05.

[3] = tested on: LPS-Induced Delayed (12 Hours) Allodynia; assay: LPS-induced delayed (12 hours) rectal allodynia in rats; type: in vivo, Male Wistar rats
Description: as §1, §2, §3, §4
In a second series of experiments, the same group of 8 rats received IP lipopolysaccharide (E Coil, serotype 0111:B4) or its vehicle, at a dose of 1 mg/kg IP, 1 hour after a control rectal distension. […]
as §5

## NCC1(CC(=O)O)CCCCC1 [Gabapentin, 1-(aminomethyl)-cyclohexane acetic acid]
[1]; 40 mg gabapentin, 1 mL of 70% ethanol
  area of injury: 24.4 ± 3.5 mm^2
[1]; 60 mg gabapentin, 1 mL of 70% ethanol
  area of injury: 18.7 ± 2.2 mm^2
[1]; 2 doses of 20 mg gabapentin, 3 hours apart, then 1 mL of 70% ethanol, assessed 30 min later
  area of injury: 2.1 ± 0.3 mm^2
[2]; Gabapentin 30 mg/kg IP 30 min before, volume of distension 0.4mL, vehicle 4.4 ± 1.6, mean ± SEM
  Number of abdominal contractions/5 minutes: 5.0 ± 2.1 abdominal contractions/5 minutes
[2]; Gabapentin 30 mg/kg IP, volume of distension 0.8 mL
  % of reduction vs vehicle: -45%
[2]; Gabapentin 30 mg/kg IP, volume of distension 0.8 mL, vehicle 19.1 ± 2.8, p <0.01
  Number of abdominal contractions/5 minutes: 10.6 ± 3.4 abdominal contractions/5 minutes
[2]; Gabapentin 30 mg/kg IP, volume of distension 1.2 mL
  % of reduction vs vehicle: -31.2%
[2]; Gabapentin 30 mg/kg IP, volume of distension 1.2 mL, vehicle 23.4 ± 2.6, p <0.05
  Number of abdominal contractions/5 minutes: 16.1 ± 2.3 abdominal contractions/5 minutes
[2]; Gabapentin 100 mg/kg IP, volume of distension 0.4mL, vehicle 3.9 ± 1.8
  Number of abdominal contractions/5 minutes: 2.0 ± 1.4 abdominal contractions/5 minutes
[2]; Gabapentin 100 mg/kg IP, volume of distension 0.8 mL
  % of reduction vs vehicle: -61.2%
[2]; Gabapentin 100 mg/kg IP, volume of distension 0.8 mL, vehicle 19.6 ± 2.3, p <0.01
  Number of abdominal contractions/5 minutes: 7.6 ± 3.4 abdominal contractions/5 minutes
[2]; Gabapentin 100 mg/kg IP, volume of distension 1.2 mL, vehicle 19.1 ± 2.3
  Number of abdominal contractions/5 minutes: 16.7 ± 2.9 abdominal contractions/5 minutes
[3]; LPS (1 mg/kg) + Gabapentin (3.0 mg/kg (so in the source)) IP 30 min before distension, 12 hours after LPS, 0.4 mL, LPS + vehicle 9.7 ± 1.0, p <0.001
  Number of abdominal contractions/5 minutes: 0.7 ± 0.5 abdominal contractions/5 minutes
[3]; LPS (1 mg/kg) + Gabapentin (3.0 mg/kg (so in the source)) IP, 0.4 mL
  % of reduction vs "LPS/vehicle": -92.8%
[3]; LPS (1 mg/kg) + Gabapentin (3.0 mg/kg (so in the source)) IP, 0.8 mL, LPS + vehicle 11.7 ± 1.2
  Number of abdominal contractions/5 minutes: 11.9 ± 0.8 abdominal contractions/5 minutes
[3]; LPS (1 mg/kg) + Gabapentin (3.0 mg/kg (so in the source)) IP, 1.2 mL, LPS + vehicle 23.5 ± 2.2
  Number of abdominal contractions/5 minutes: 16.3 ± 3.2 abdominal contractions/5 minutes
